“Also recorded” adds a separate entry of the source.
How the values were obtained:
[1] = molecular target: T1, horseradish peroxidase type VI-A (Armoracia rusticana, UniProt P00433); assay: Peroxidase-catalysed oxidation of substrates, initial velocity (absorbency 492 nm) vs substrate concentration, Michaelis/Menten; assay type: biochemical; details: for Kkat: Vmax/[E], worked out from peroxidase of 50,000 g/mol; for Properties as substrate for peroxidase (in words): peroxidase/hydrogen peroxide system, compared with OPD or 3,4-DABA
T1 construct: purchased Sigma 6782
T1 sequence (P00433 31-338 limits assumed): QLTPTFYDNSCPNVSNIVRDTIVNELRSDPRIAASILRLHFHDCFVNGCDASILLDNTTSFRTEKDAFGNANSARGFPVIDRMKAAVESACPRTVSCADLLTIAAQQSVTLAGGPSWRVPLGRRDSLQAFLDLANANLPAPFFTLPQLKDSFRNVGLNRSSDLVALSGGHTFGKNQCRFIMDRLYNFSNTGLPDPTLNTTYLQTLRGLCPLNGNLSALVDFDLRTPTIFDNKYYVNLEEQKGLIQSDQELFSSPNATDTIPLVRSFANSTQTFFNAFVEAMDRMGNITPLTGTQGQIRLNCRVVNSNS
From the text: Absorbancy at 492 nm was used as a measure of the course of the reaction. The initial velocity was taken to be the absorbancy at 492 nm two minutes after the addition of the peroxidase to a mixture of the substrate and hydrogen peroxide in a buffer with a pH of 5.0. The wavelength of 492 nm was chosen because it is employed in the standard assay procedures for OPD.
By varying the concentration of the substrate and at the same time measuring the initial velocity of the reaction it is posible to apply the Michaelis/Menten equation to the system.
Under ideal conditions the values determined experimentally will approach the value of the expression: [formula]
where [S] is the concentration of the substrate, Vmax is the maximum initial […] which is reached in the particular assay. Km is defined as the concentration of the substrate at Vmax/2. A small Km value will therefore be characteristic for an enzyme system where a low concentration of the substrates produces saturation of the enzyme.
The expression implies that the initial velocity will increase with increasing concentration of the substrate, but the curve for the velocity will flatten out and approach Vmax for very high concentrations of the substrate. In actual fact the parameter Kkat be calculated as Vmax/[E] where [E] is the molar concentration of the enzyme in the reaction. Kkat is the same as min^−1 and reflects the activity of the enzyme in a saturated solution upon the substrate.
The following solutions were prepared for use in the enzyme assay:
A 50 mM phosphate/citrate buffer with a pH of 5.0 was made by mixing a 50 mm Na2HPO4 solution and a 50 mm solution of citric acid. The pH was measured while mixing was in progress.
15 μl of a 30% solution of hydrogen peroxide (PERHYDROL, Merck) was thinned down with 25 ml of the assay buffer.
The stabilizing buffer for peroxidase, i.e. a buffer which stabilizes the enzyme, was prepared according to the method of Olsen and Little (1983). A 0.1M Na-acetate buffer, which was 0.5M in terms of CaCl2 was adjusted to pH 5.6.
10 mg of horseradish peroxidase type VI-A (Sigma no. 6782) were dissolved in 10 ml of the stabilizing buffer. This was stored at −15° C.
The standard peroxidase solution was diluted to 1:1000 with the 10 ml assay-buffer solution in 10 μl standard solution.
0.5 mmol of each substrate in 5 ml DMF.
The standard solutions were diluted by 1:10 with the assay buffer. Before being used the substrate solutions were diluted by 1:10. 0.5 ml of the standard solution was thinned down with 4.5 ml of the assay buffer.
The concentration of the peroxidase was held constant at 50 ng/ml during the whole investigation. By using the volume of substrate and the volumes of 10 vol-% DMF solution as given in table 4 it was possible to employ a constant reaction volume and a constant concentration of DMF. For all measurements there was used 1550 μl buffer and 50 μl bench solution of peroxidase. The total volume is then as follows: 300 μI DMF and substrate solution, 1550 μl buffer, […] bench solution of peroxidase and 50 μl hydrogen peroxide solution. That is 2000 μl in total.
The results of the measurements of initial velocities are stated in units of absorbency and not in molar units. In order to be able to measure the “true” velocity of reaction it is necessary to isolate the oxidation product for each substrate and determine the molar extinction coefficient. The value of Kkat is worked out from 1 mole of peroxidase of 50,000 g/mol.

[2] = background statement; cited from earlier work
[3] = test system: Salmonella tphimurium TA 98; assay: Ames test for mutagenicity, with and without S9-mix; assay type: cell-based; details: 100 μl of 50, 100 and 200 mM solutions in DMSO, with and without rat liver S9-mix
Description: The Ames test (Maron and Ames (1983)) was used to determine the mutagenic properties of the compounds. Nutrient media were prepared in the manner described by Venitt and Parry (1984). To 3×2 ml melted agar at 45° C. were added 100 μl of 50, 100 and 200 mM of solutions of the compounds dissolved in DMSO. By means of a pipette 100 μl of a well-grown culture of Salmonella tphimurium TA 98 (BIO-TEST gl. skolevej 47, 6731 Tiaereborg) were added to the same test-tube. The bacteria contain a frameshift mutation on the histinol-dehydrogenase gene and require histidin in order to grow. Mutagenic aromatic amines can cause the bacteria to mutate to His+ and they can then grow on the nutrient medium. The number of colonies after incubation therefore give a quantitative measure of the ability of the added compound to cause mutation. In all trials spontaneous mutations take place in the absence of a mutagen. These provide a measure of “background” mutation.
All trials were therefore carried out both with and without the addition of “S9-mix” from the livers of rats, this contains the P450 system. 0.5 ml of […] was added to each test-tube. The criteria for mutation are that increasing concentrations of the compound under investigation give a marked increase in the number of His+ mutants.

| SMILES | Kkat [1] | Properties as substrate for peroxidase (in words) [1] | melting point [°C] | further results |
| --- | --- | --- | --- | --- |
| Nc1ccc(C(=O)O)cc1N [3,4-DABA, 3,4-diamino benzoic acid] | 2.0 * 10^8 1*mol^−1*min^−1 | considerably poorer substrate for peroxidase than is OPD; also recorded: higher Km-value at the same Vmax when compared with OPD |  |  |
| CCn1c(=NN=c2sc3cc(S(=O)(=O)O)ccc3n2CC)sc2cc(S(=O)(=O)O)ccc21 [ABTS, 2,2-azino-di (3-ethyl-benzo thiazolin-6-sulphonic acid)] |  |  |  | Mutagenicity (known) [2]: mutagent |
| Nc1ccccc1N [OPD, o-phenylendiamine] | 1.6 * 10^8 1*mol^−1*min^−1 |  |  | Carcinogenicity (known) [2]: carcinogenic; Mutagenicity (known) [2]: mutagenic; also recorded: not a direct mutagen; Mutagenic properties (His+ mutants with increasing concentration) [3]: has mutagenic properties |
| Nc1ccc(C(=O)O)cc1 [PABA, p-amino benzoic acid] |  |  |  | Toxicity (generally considered) [2]: non-toxic |
| Nc1ccccc1 [aniline] |  |  |  | Toxicity (generally considered) [2]: very toxic |
| CCOC(=O)c1ccc(N)c(N)c1 [ethyl ester, 3,4-diamino benzoic acid ethyl ester] | 2.7 * 10^8 1*mol^−1*min^−1 | significantly improved properties than 3,4-DABA; also recorded: very high Vmax | 112 to 113 |  |
| CC(C)OC(=O)c1ccc(N)c(N)c1 [isopropyl ester, 3,4-diamino benzoic acid isopropyl ester] | 2.2 * 10^8 1*mol^−1*min^−1 | significantly improved properties than 3,4-DABA | 73 to 74 |  |
| COC(=O)c1ccc(N)c(N)c1 [methyl ester, 3,4-diaminobenzoic acid methyl ester] | 2.2 * 10^8 1*mol^−1*min^−1 | significantly improved properties than 3,4-DABA | 108 to 109 |  |

Source: patent US20020004958A1, “Dyeing substrates” (Novozymes A/S, priority 1996, published 2002)
